Source: patent publication US20120156311A1, “COMBINATION THERAPY FOR CANCER COMPRISING A PLATINUM-BASED ANTINEOPLASTIC AGENT AND A BIOCOMPATIBLE ELECTRON DONOR” (priority 2009, published 2012)
Entries after “also recorded” stand apart in the source; their conditions may differ.

Legend:
[1] = tested on: NIH-OVCAR-3 (HTB-161) cisplatin-resistant human ovarian cancer cells; test: MTT cell viability assay in cisplatin-resistant HTB-161 cells; assay type: cell-based; settings: for effect of combination with cisplatin on viability and drug resistance: cisplatin combined with electron donor (100 μM TMPD)
Method: Briefly, HTB-161 cells were plated at a density of 7×10^3 cells/well in 96-well plates. […] After incubation for specified times at 37° C. in a humidified incubator, 20 μL of MTT (5 mg/mL in PBS) were added to each well, and cells were incubated for a further 4 h. After removal of the medium, 100 μL DMSO was added to each well. The absorbance was recorded on a microplate reader at the wavelength of 540 nm.

[2] = tested on: NIH-OVCAR-3 (HTB-161) cisplatin-resistant human ovarian cancer cells; test: APO-BrdU TUNEL DNA fragmentation assay (flow cytometry) in HTB-161 cells; assay type: cell-based
Method: The method based on terminal deoxyribonucleotidyl transferase (TdT)-mediated dUTP nick-end labelling was used to determine the cell apoptosis. […] DNA fragmentation was measured by using the APO-BrdU TUNEL assay. […] After trypsinized, the cells were washed with PBS, were processed for labeling with the deoxythymidine analog 5-bromo-2′-deoxyuridine 5′-triphosphate (BrdUTP), and were incubated with an Alexa Fluor 488 dye-labeled anti-BrdU antibody and propidium iodide by the use of an APO-BrdU™ TUNEL Assay Kit (Invitrogen) as per manufacturer's protocol. The labeled cells were analyzed by flow cytometry.

[3] = tested on: HeLa (cervical cancer) cells; test: MTT cell survival assay in HeLa cells; assay type: cell-based, human
Method: Thus, appropriate doses of the molecular promoters were selected by initially screening for toxicity. […] The viability of cells was measured by MTT assay, one of the most commonly used cell viability assays. This method involves the conversion of MTT (3-(4,5-dimethylthiazol-2-yl)-2,5-diphenyltetrazolium bromide) to an insoluble formazan by metabolically-active cells (live cells). Using a solubilizing agent, the formazan is dissolved and its absorbance measured, giving indication to the number of cells that survive.
Cells were cultured in 96-well plates (5×10^3 cells/well) for 24 h. The culture medium was replaced by new culture medium and incubated for 24 h with varying drug concentrations. After the drug treatment, cells were replaced with new medium containing 1.2 mM MTT (Sigma) and incubated for 4 h. The medium was then removed and the formazan crystals solubilized by 100 μL DMSO. The surviving fraction was determined by measuring the absorbance at 540 nm using a Multiskan Spectrum UV/Vis microplate reader (Thermo Scientific), which is directly proportional to the number of viable cells.

[4] = tested on: HeLa (cervical cancer) cells; test: APO-BrdU TUNEL DNA fragmentation assay (flow cytometry) in HeLa cells; assay type: cell-based, human; settings: for cells with DNA fragmentation (BrdU-positive): 48 h
Method: DNA fragmentation was detected using a standard apoptosis assay, APO-BrdU TUNEL, which utilizes the fact that DNA strand breaks expose a large number of 3′-OH ends, which act as a starting point for terminal deoxynucleotidyl transferase (TdT) to add deoxyribonucleotides. The break sites are labeled by the addition of BrdUTP in the presence of the TdT enzyme. An anti-BrdU antibody conjugated with a fluorescent molecule is added to detect the strand breaks by measuring their fluorescence intensities using flow cytometry. The cell cycle distribution can also be detected simultaneously from the ordinate axis of the generated dot plot (with the BrdU-content on the y-axis), where the events with fluorescence intensity above the background indicate the cells with fragmented DNA (within upper box).
Cells were cultured in 25 cm^2 flasks (˜8×10^7 cells/flask) for 24 h. The culture medium was replaced by new medium and incubated for 48 h with varying drug concentrations. Both floating and adherent cells were harvested by trypsinization and fixed using 1% paraformaldehyde for 30 minutes. Cells were then permeabilized using 70% ice-cold ethanol for at least 24 h at −20° C. Samples were prepared for DNA fragmentation measurements using the APO-BrdU DNA Fragmentation Assay (Invitrogen). To label the DNA, ethanol was removed and cells were resuspended in 50 μL of TUNEL reaction buffer containing terminal deoxynucleotidyl transferase and BrdUTP for 1 h at 37° C., shaking every 15 min. After overnight room temperature incubation, the cells were then incubated with Alexa Fluor 488-conjugated BrdUTP-antibody for 30 min at room temperature. Cells were also stained with propidium iodide (5 μg/mL) and incubated with RNase A for 30 min at room temperature to determine the total cellular DNA content. Samples were then analyzed by a Becton-Dickinson FACSVantage SE flow cytometer in pulse processing mode (10 000 cells per sample). Computational analyses were performed using FCS Express software (De Novo Software, Los Angeles, Calif.) to obtain FL1-H versus FL2-A dot plots (log versus linear, respectively), gating on front scatter (FSC) versus side scatter (SSC) to eliminate debris, as well as FL2-A versus FL2-W to eliminate doublets. Experiments were performed independently at least 3 times
DNA fragmentation was measured by using the APO-BrdU TUNEL assay.

[5] = tested on: Plasmid DNA [pGEM 3Zf(−), 3197 kp]; test: Agarose gel electrophoresis of plasmid DNA damage; assay type: biochemical, Escherichia Coli; settings: cisplatin alone, up to 3.0 mM
From the text: The gel electrophoresis was used for quantitative measurements of plasmid DNA damage, characterizing single-strand breaks (SSBs), double-strand breaks (DBSs) and crosslinks (CLs). We also used the γH2AX DNA damage assay (Invitrogen) to detect DSBs of genomic DNA in cancer cells. Briefly, DNA damaging radicals induce phosphorylation of histone variant H2AX (Ser139) forming DNA foci at the site of DNA DSBs. Phosphorylated H2AX aids in the recruitment of proteins responsible for DSB repair.
Aliquots equivalent to 96 ng DNA were removed from the solutions for gel electrophoresis. All aliquots were analyzed with a standard agarose gel electrophoresis method, namely, on 1% neutral TAE agarose gel in TAE running buffer. The gel was prestained with 1 μg/ml ethidium bromide.

[6] = tested on: NIH-OVCAR-3 (HTB-161) cisplatin-resistant human ovarian cancer cells; test: Cell cycle analysis by flow cytometry in HTB-161 cells; assay type: cell-based; settings: cisplatin alone or with 100 μM TMPD, 24 h
Method: HTB-161 cells were plated at a density of 2×10^5 per well on six-well plates. […] The cells were trypsinized, washed twice with chilled PBS, and centrifuged. The cell pellet was resuspended in 70% ethanol at −20° C. overnight. The cells were centrifuged at 1,000 rpm for 5 min; the pellet was washed twice with chilled PBS, suspended in 500 μL PBS, and incubated with RNase (20 μg/mL final concentration) at 25° C. for 30 min and with propidium iodide (50 μg/mL final concentration) for an additional 30 minutes. The cells were analyzed by flow cytometry. Flow cytometry was done with a FACS vantage SE (Becton Dickinson). A minimum of 10,000 cells per sample were counted and the DNA histograms were further analyzed by using FCS Express software for cell cycle analysis.

Structure (SMILES) | cell viability ([1]; 100 μM TMPD alone) | effect of combination with cisplatin on viability and drug resistance [1] | DNA fragmentation (BrdU positive cells) ([2]; 100 μM TMPD alone) [%] | toxicity of TMPD alone (cell survival / viability) ([3]; TMPD alone, up to 100 μM) | cells with DNA fragmentation (BrdU-positive) ([4]; 100 μM TMPD alone) [%] | resistance of HTB-161 cells to cisplatin ([1]; cisplatin alone, 200-300 uM) | DNA strand breaks in plasmid DNA [5] | distribution of cells in the cell cycle [6] | DNA fragmentation (BrdU positive cells) ([2]; 50 μM cisplatin without or with 100 μM TMPD) [%] | killing of HeLa cells ([3]; 10 and 20 μM cisplatin alone) [%] | cell survival rates ([3]; CDDP alone, 24 h) | cells with DNA fragmentation (BrdU-positive) ([4]; 10 μM CDDP without or with 100 μM TMPD) [%] | cells with DNA fragmentation (BrdU-positive) ([4]; 25 μM CDDP without or with 100 μM TMPD) [%] | cells with DNA fragmentation (BrdU-positive) ([4]; 50 μM CDDP without or with 100 μM TMPD) [%] | cell cycle arrest ([4]; HeLa cells, CDDP as single agent (lower doses) or with TMPD) | toxicity of ICG alone (cell survival) ([3]; ICG alone, up to 200 μM)
CN(C)c1ccc(N(C)C)cc1 [TMPD, N,N, N′,N′-tetramethyl-p-phenylene diamine] | slight decrease of the cell viability | rendered cisplatin-resistant tumor cells almost completely sensitive | 0.04 | very mild toxicity; also recorded: only slightly decreased the cell viability; also recorded: no significant toxicity | 2 | – | – | – | – | – | – | – | – | – | – | –
N.N.[Cl][Pt][Cl] [cisplatin, cis-diamminedichloroplatinum(II)] | – | – | – | – | – | strong resistance | no SSBs and DSBs but intrastrand cross links only; also recorded: intrastrand cross links only, with no SSBs or DSBs | accumulation of cells in the G1 phase | 3.61 | 20 | decreased the cell survival rates in a dose-dependent manner | 9 | 6 | 38 | accumulate in the G2/M phase | –
CC1(C)C(/C=C/C=C/C=C/C=C2\N(CCCCS(=O)(=O)[O-])c3ccc4ccccc4c3C2(C)C)=[N+](CCCCS(=O)(=O)[O-])c2ccc3ccccc3c21.[Na+] [ICG, Indocyanine green] | – | rendered cisplatin-resistant tumor cells almost completely sensitive | – | – | – | – | – | – | – | – | – | – | – | – | – | no significant toxicity
